From BindingDB's records for doi:10.1016/S0960-894X(96)00274-0 (1996) come the findings set out here.

Assay [1] in a line: Compound was tested for Inhibition of 9 (1 nM) binding to Opioid receptor delta 1 from bovine striatal Membranes.
A short description of assay [2]: Compound was tested for Inhibition of [3H]-DPDPE (0.2 nM) binding to Opioid receptor from bovine striatal Membranes.

With `C=C(Cl)C(=O)N[C@@]12CCC(=O)[C@@H]3Oc4c(O)ccc5c4C31CCN(CC1CC1)C2C5` (stereo partly drawn) [1N-[4-cyclopropylmethyl-10-hydroxy-14-oxo-(13R,17S)-12-oxa-4-azapentacyclo[9.6.1.01,13.05,17.07,18]octadeca-7(18),8,10-trien-17-yl]-2-chloroacrylamide], the values for the IC50 in assay [1] and in assay [2] were 177 nM and 501 nM, respectively.
In the same order, the values of `C=C(Cl)C(=O)N[C@@]12CCC(=O)[C@@H]3Oc4c(O)ccc5c4C31CCN(C)C2C5` (stereo partly drawn) [1N-[10-hydroxy-4-methyl-14-oxo-(13R,17S)-12-oxa-4-azapentacyclo[9.6.1.01,13.05,17.07,18]octadeca-7(18),8,10-trien-17-yl]-2-chloroacrylamide] are 178 nM and 184 nM.
For `C=C(Cl)C(=O)N[C@@H]1CCC2C3Cc4ccc(O)c5c4C2(CCN3C)[C@H]1O5` (stereo partly drawn) [1N-[10-hydroxy-4-methyl-(13R,14R)-12-oxa-4-azapentacyclo[9.6.1.01,13.05,17.07,18]octadeca-7(18),8,10-trien-14-yl]-2-chloroacrylamide] the same measures were 45 nM and 26 nM.
In the same order, the values of `C=C(Cl)C(=O)N[C@@H]1CCC2C3Cc4ccc(O)c5c4C2(CCN3CC2CC2)[C@H]1O5` (stereo partly drawn) [1N-[4-cyclopropylmethyl-10-hydroxy-(13R,14R)-12-oxa-4-azapentacyclo[9.6.1.01,13.05,17.07,18]octadeca-7(18),8,10-trien-14-yl]-2-chloroacrylamide] are 0.53 nM and 1.5 nM.
